From patent US10752628B2, “Compounds and methods for treating synovial sarcomas” (THE BROAD INSTITUTE, INC., priority 2015, dated 2020)

Legend:
Assay type in all cases: cell-based, human
[1] = test system: BAF47 within the BAF complex; experiment: anti-Brg immunoprecipitation of BAF complexes followed by anti-BAF47 western blot in Aska cells; settings: 48 hours at 16 μM, relative to DMSO control
Experimental: Briefly, naïve, unmodified Aska SS cells were treated for 48 hours at 16 μM concentration of all 5 positive hit compounds (as well as negative compounds for controls). The western blot reflects IPs of BAF complexes highlighting increased incorporation/stability of BAF47 relative to DMSO control. The bar graph highlights levels of BAF47 (measured via western blot quantitative densitometry) over n=3 experiments for each compound, including testing against three other negative compounds.
(§1) All cell types were grown under standard conditions and lysed and homogenized in Buffer A (10 mM Hepes (pH 7.6), 25 mM KCl, 1 mM EDTA, 10% glycerol, 1 mM DTT, and protease inhibitors (complete mini tablets (Roche) supplemented with 1 mM PMSF) on ice. Nuclei were sedimented by centrifugation (1,000×g), resuspended in Buffer C (10 mM Hepes (pH 7.6), 3 mM MgCl2, 100 mM KCl, 0.1 mM EDTA, 10% glycerol, 1 mM DTT, and protease inhibitors), and lysed by the addition of ammonium sulfate to a final concentration of 0.3 M. Soluble nuclear proteins were separated by the insoluble chromatin fraction by ultracentrifugation (100,000×g) and precipitated with […] ammonium sulfate for 20 min on ice. Protein precipitate was isolated by ultracentrifugation (100,000×g), and resuspended in IP buffer (150 mM NaCl, 50 mM Tris-HCl (pH 8.0), 1% NonidetP-40, 0.5% deoxycholate, 1 mM DTT, 1 mM PMSF with protease inhibitors) for immunoprecipitation analyses or HEMG-0 buffer (25 mM HEPES pH 7.9, 0.1 mM EDTA, 12.5 mM MgCl2, 100 mM KCl, freshly supplemented with DTT and PMSF) for glycerol gradient analyses.
(§2) Nuclear extracts were resuspended in IP buffer and precleared for 30 minutes at 4 degrees C. using Protein G/A Sepharose beads (GE Healthcare). The protein concentration was determined using Bradford assay and adjusted to a final volume of 250 μL at a final concentration of 1.5 mg/mL with IP buffer. Each IP was incubated with 2.5 μg of antibody overnight at 4° C. and then for 2 h with 20 μL Protein A/G Sepharose beads. The beads were washed four times at room temperature with 1 mL IP buffer and resuspended in 20 μL 2× gel loading buffer (4×LDS Buffer; Invitrogen)+DTT.

[2] = test system: Aska synovial sarcoma cells; experiment: Synovial sarcoma cell viability by CellTiter Glo luminescence
Experimental: FIGS. 15A-15C comprise a set of graphs illustrating the finding that compounds of the invention reduce synovial sarcoma cell viability as measured by CellTiter Glog luminescence.
The effect of compounds of the invention on synovial sarcoma cell viability was assessed as measured by CellTiter Glo® luminescence (FIGS. 15A-15B). Briefly, cells were plated under standard conditions and allowed to grow to 75% confluence prior to treatment with compounds. CellTiterGlo reagent was used to measure cell viability.

[3] = test system: BAF47 within the BAF complex; experiment: BAF155 immunoprecipitation and western blot for BAF47 in Aska cells; settings: for BAF47 stabilization within the BAF complex (BAF155 immunoprecipitation): Aska cells, twenty-four hours, single 30 micromolar dose
Experimental: These include resynthesized positive hits for Compounds 5-6.
FIG. 8 comprises a series of images and graph illustrating the activity of Compound 5 in Yamato cells. Briefly, Yamato cells were treated with 30 μM compound for 24 hours over n=5 replicates. The graph depicts levels of BAF47 in DMSO treated vs Compound 5-treated cells.
as §1, §2

[4] = test system: BAF47; experiment: Time and dose study of Compound 11 on BAF47 stability in Aska cells; settings: 0-30 micromolar, 24, 48 and 72 hours
Experimental: FIG. 9 comprises a set of bar graphs illustrating the effects of Compound 11 (illustrated), the lead compound lacking the hydroxyl group, as a function of time and dose in Aska cells.
Compound 11 was added at doses from 0-30 micromolar, and the results monitored at 24, 48, and 72 hours after treatment.

SMILES: C[C@@H]1CN([C@H](C)CO)C(=O)c2cccc(NC(=O)c3ccc(-c4nccs4)cc3)c2O[C@@H]1CN(C)Cc1ccc(C(=O)Nc2ccccc2N)cc1 [Compound 1, N-(2-aminophenyl)-4-(((((2S,3R)-5-((R)-1-hydroxypropan-2-yl)-3-methyl-6-oxo-10-(4-(thiazol-2-yl)benzamido)-3,4,5,6-tetrahydro-2H-benzo[b][1,5]oxazocin-2-yl)methyl)(methyl)amino)methyl)benzamide]
- BAF47 stabilization (anti-Brg IP, anti-BAF47 western blot) [1]: stabilized BAF47

SMILES: C[C@@H]1CN([C@H](C)CO)C(=O)c2cc(NC(=O)NC3CCCCC3)ccc2O[C@@H]1CN(C)S(=O)(=O)c1cccs1 [Compound 3, N-(((2S,3R)-8-(3-cyclohexylureido)-5-((R)-1-hydroxypropan-2-yl)-3-methyl-6-oxo-3,4,5,6-tetrahydro-2H-benzo[b][1,5]oxazocin-2-yl)methyl)-N-methylthiophene-2-sulfonamide]
- BAF47 stabilization (anti-Brg IP, anti-BAF47 western blot) [1]: stabilized BAF47

SMILES: COc1ccc2c3c([nH]c2c1)[C@@H](CO)N(Cc1ccccc1F)CC31CCN(C(=O)C2CCC2)CC1 [Compound 5, (S)-cyclobutyl(2′-(2-fluorobenzyl)-1′-(hydroxymethyl)-7′-methoxy-1′,2′,3′,9′-tetrahydrospiro[piperidine-4,4′-pyrido[3,4-b]indol]-1-yl)methanone]
- Cell viability (CellTiter Glo luminescence) [2]: resulted in cell toxicity
- BAF47 stabilization (anti-Brg IP, anti-BAF47 western blot) [1]: stabilized BAF47
- BAF47 stabilization within the BAF complex (BAF155 immunoprecipitation) [3]: stabilized BAF47 within the BAF complex
- BAF47 stabilization (western blot image, FIG. 8 lower panel) ([3]; Aska-SS cells upon treatment with Compound 5): stabilization of BAF47

SMILES: COc1ccc2c3c([nH]c2c1)CN(Cc1ccccc1F)CC31CCN(C(=O)C2CCC2)CC1 [Compound 11, cyclobutyl(2′-(2-fluorobenzyl)-7′-methoxy-1′,2′,3′,9′-tetrahydrospiro[piperidine-4,4′-pyrido[3,4-b]indol]-1-yl)methanone]
- BAF47 stability as a function of time and dose [4]: increases BAF47 stability in dose-dependent manner
- BAF47 stabilization within the BAF complex (BAF155 immunoprecipitation) [3]: stabilized BAF47 within the BAF complex

SMILES: C[C@@H]1CCCCO[C@@H](CN(C)Cc2ccc(C(=O)Nc3ccccc3N)cc2)[C@H]2C[C@@H](CO)N(C2)C(=O)c2cc(N(C)C)ccc2O1 [Compound 8, N-(2-aminophenyl)-4-(((((13S,15R,5R,11R)-35-(dimethylamino)-15-(hydroxymethyl)-5-methyl-2-oxo-4,10-dioxa-1(1,3)-pyrrolidina-3(1,2)-benzenacycloundecaphane-11-yl)methyl)(methyl)amino)methyl)benzamide]
- BAF47 stabilization (anti-Brg IP, anti-BAF47 western blot) [1]: stabilized BAF47
